Residues, ends and D or L forms follow the SMILES beside them. *: point of attachment. Cbz = O=C(OCc1ccccc1)*; CH2F = FC*
Legend:
Assay type in all cases: cell-based, human
[1] = system: Cama-1 cells; test: Apoptosis by annexin V staining and flow cytometry; conditions: Cama-1; for effect on Poly IC induced apoptosis: 5 μg/ml Poly IC; for percentage of apoptotic cells: 5 μg/ml Poly IC or 25 ng/ml TNF-α
Procedure: (§1) Cell recovery after treatment with TLR ligands was measured by crystal violet staining (Sigma-Aldrich). Cells were plated at 10^4 cells/well in 96 well plates. After 72 hours of culture either with or without TLR ligand, the cells were washed with PBS, fixed in 6% formaldehyde (Sigma-Aldrich) for 20 minutes, washed twice, and then stained with 0.1% crystal violet for 10 minutes. After washes and incubation in 1% SDS for 1 hour, the absorbance was read at 605 nm on a Vmax plate reader (Molecular Devices, Sunnyvale, Calif.). Annexin V staining was performed with an annexin-FITC apoptosis detection kit (BD Pharmingen, San Diego, Calif.) according to the manufacturer's instructions. Sub-diploid cells were detected by staining with 3 μg/mL propidium iodide (PI) (Molecular probes, Eugene, Oreg.), after overnight permeabilization in 70% ethanol. Fluorescence was analyzed by flow cytometry on a FACScalibur (Becton Dickinson, Mountain View, Calif.) equipped with a doublet-discrimination module and using Celiquest Pro software (Becton Dickinson).
Cama-1 cells were plated in 6 well plates at 3×10^5 cells per well. After overnight adherence, siRNA transfections were performed for 5 hours in OptiMEM medium (Life technologies) containing 3 μg/mL lipofectamine 2000 (Invivogen) and 100 nM siRNA. Cells were then washed and cultured for 72 hours in complete medium before treatment with Poly IC and apoptosis analysis. siRNA duplexes specific for TLR3, PKR, IRAK-4, TRAF6 and p65 were purchased from Dharmacon (Lafayette, Colo.) as SMART-Pools. TRIF siRNA was purchased from the same supplier as single oligoduplexes (5′-GCUCUUGUAUCUGMGCAC-3′) (SEQ ID NO: 23). TLR3 and TRIF expression was assessed by PCR (35 cycles: 1 min 94° C., 1 min 55° C., 2 min 72° C.) with Taq PCR ReadyMix (Sigma-Aldrich) using following primers: […]
To further investigate the effect of Poly IC treatment on breast tumor cell lines, cell death was analyzed in Cama-1 cells by annexin V staining. Cells were cultured for 24 hours either with or without 5 μg/ml of Poly IC. Apoptosis was measured by annexin V staining and flow cytometry.
We also tried to determine the kinetics of Poly IC induced apoptosis. Cama-1 cells were cultured either with or without 5 μg/ml or 50 ng/ml of Poly IC. The percentage of apoptotic (annexin positive) cells in the culture were measured during the following 30 hours. […] Specifically, Poly IC triggered apoptosis in Cama-1 cells beginning 9 hours after Poly IC addition and reaching up to 80% apoptotic cells after 30 hours of treatment.
Poly AU was analyzed for its effects on apoptosis. Cama-1 cells were cultured for 48 hours either with PBS or with increasing concentrations of Poly AU ranging from 5 ng/ml to 50 μg/ml. Apoptosis was analyzed by measuring the percentage of annexin V positive cells.
In order to determine the pathway of Poly IC induced Cama-1 cell toxicity, RNA interference was used to efficiently downregulate expression of TRIF and PKR. Cama-1 cells were plated in 6 well plates at 3×10^5 cells per well. After overnight adherence, siRNA transfections were performed for 5 hours in OptiMEM medium (Life technologies) containing 3 μg/mL lipofectamine 2000 (Invivogen) and 100 nM siRNA. Cells were transfected with either MOCK (water), control scrambled duplex (scr) siRNA, TRIF siRNA or PKR siRNA.
72 hours after siRNA transfection, Cama-1 cells were cultured for another 24 hours either with or without 5 μg/ml Poly IC. Apoptosis was measured by annexin V staining and expressed as a percentage of apoptotic cells in culture. On average, 10% of control cells (MOCK and scr) that were untreated underwent apoptosis. In contrast, about 75% of control cells (MOCK and scr) that were treated with Poly IC underwent apoptosis.
To further investigate TLR3 mediated cytotoxicity, the involvement of the signaling molecules IRAK4 and TRAF6, both downstream mediators of TLR signaling, were assessed. Cama-1 cells were plated in 6 well plates at 3×10^5 cells per well. […]

[2] = system: Cama-1, SW527, BT483 and MCF-7; test: Cell recovery by crystal violet staining, four breast tumor cell lines together; conditions: 72 h, 5 μg/ml PGN; for effect on cell recovery of any of the four breast cancer cell lines: 10 μg/ml LPS, 50 ng/ml flagellin, 6 μg/ml R848, 10 μg/ml CpG ODNs; for cell recovery, percent of control, on average: 50 μg/ml Poly IC or 10 μg/ml LPS, average of the four cell lines
Procedure: as §1
Four human breast tumor cell lines, Cama-1, SW527, BT483 and MCF-7, were analyzed for cell death in response to Poly IC. Cells were cultured for 72 hours with 5 μg/ml PGN, 50 μg/ml Poly IC or 10 μg/ml LPS. Control cells were cultured with PBS. Cytotoxicity was assessed by crystal violet staining and expressed as a percent of control.
Furthermore, additional TLR ligands were tested to determine any possible effects on cellular toxicity. The ligands tested were PGN, LPS, Flagellin, R848 and CpG. Cells were cultured for 72 hours with 5 μg/ml PGN, 10 μg/ml LPS, 50 ng/ml flagellin, 6 μg/ml R848, 10 μg/ml CpG ODNs, or with PBS as control. Cell recovery was assessed by crystal violet staining and expressed as a percent of control.

[3] = system: IL-8; test: IL-8 secretion by breast cancer cell lines; conditions: certain cell lines
[4] = system: TLR3 mRNA; test: TLR3 mRNA expression by RT-PCR in Cama-1 cells; conditions: 48 h, 5 μg/ml, agent alone
Procedure: Cama-1 cells were analyzed for TLR3 mRNA expression in response to Poly IC. Cama-1 cells were cultured in complete medium (DMEM F12 containing […] glucose and complemented with 2 mM L-glutamine, 10% fetal calf serum, 160 μg/mL gentalline, 2.5 mg/mL sodium bicarbonate) for 48 hours either alone or with LPS (5 μg/ml) and/or with Poly IC (5 μg/ml). The mRNA from each group of cells was extracted. The mRNA was then reverse-transcribed and PCR amplified for 35 cycles (as above in Example 1) with hTLR3 specific primers: TLR3F: […] (SEQ ID NO: 5) and TLR3R: […] (SEQ ID NO: 6). TLR3 mRNA could not be amplified from resting Cama-1 cells.
Amplified DNA from RT-PCR using hTLR3 specific primers was run on a gel.

C[C@@H]1C[C@@H]([C@H](O)CC2CC(=O)NC(=O)C2)C(=O)[C@@H](C)C1 [CHX, Cycloheximide]
effect on TNF-α induced apoptosis ([1]; 25 ng/ml TNF-α, annexin V): significantly sensitized Cama-1 cells to TNF-α induced apoptosis
effect on Poly IC induced apoptosis ([1]; annexin V): partially protected the cells against Poly IC induced apoptosis

CCOCc1nc2c(N)nc3ccccc3c2n1CC(C)(C)O [R848]
effect on cell recovery of any of the four breast cancer cell lines [2]: None of those ligands significantly reduced cell recovery

COC(=O)C[C@H](NC(=O)[C@H](C)NC(=O)[C@@H](NC(=O)OCc1ccccc1)C(C)C)C(=O)CF [z-VAD-fmk] (Cbz-Val-Ala-Asp(OMe)-CH2F)
effect on Poly IC induced apoptosis ([1]; annexin V): greatly reduced Poly IC induced apoptosis

Flagellin
effect on cell recovery of any of the four breast cancer cell lines [2]: None of those ligands significantly reduced cell recovery

Peptidoglycan [PGN]
effect on cell recovery of any of the four breast cancer cell lines [2]: None of those ligands significantly reduced cell recovery
cell recovery, percent of control, on average [2]: 95%
secretion of IL-8 [3]: induced secretion of IL-8 in certain cell lines

TNF-α
percentage of apoptotic cells ([1]; 25 μM z-VAD-fmk pre-incubation 1 h, 24 h): 10%
percentage of apoptotic cells ([1]; DMSO pre-incubation 1 h, 24 h): 40%
percentage of apoptotic cells ([1]; absence of antibody (Example 12)): 40%
percentage of apoptotic cells ([1]; pre-incubated with 10 μg/ml CHX, untreated 15%): 70%
percentage of apoptotic cells ([1]; pre-incubated with 20 μg/ml neutralizing anti TNF-α mAb): 10%

lipopolysaccharide [LPS]
effect on cell recovery of any of the four breast cancer cell lines [2]: None of those ligands significantly reduced cell recovery
cell recovery, percent of control, on average [2]: 95%
TLR3 mRNA expression [4]: did not affect TLR3 mRNA expression

polyadenylic-polyuridylic acid [Poly AU]
apoptosis (annexin V positive cells) ([1]; 48 h, 5 ng/ml to 50 μg/ml Poly AU): triggers apoptosis
